Measurements reported in publication PMC7071059, “Targeting Receptor Tyrosine Kinase VEGFR-2 in Hepatocellular Cancer: Rational Design, Synthesis and Biological Evaluation of 1,2-Disubstituted Benzimidazoles” (Molecules, 2020).

Legend:
786-0 = experiment: NCI 60 one dose (10 μM) anticancer assay; assay type: cell-based; conditions: Homo sapiens, 10 µM one dose, Renal Cancer, read-out: Growth Inhibition % 786-0
Experimental: (§1) Some of the synthesized compounds were selected by the NCI, Bethesda, MD, USA for evaluation of their anticancer activity. An in vitro one dose (10 μM) anticancer assay was conducted on a full NCI 60-cell line panel derived from 9 different cancer types. Table 2 presents the percent of growth inhibition of some cell lines. […] K-562 and MOLT-4 from leukemia, NCI-H522 from non-small cell lung cancer, HCT-116 from colon cancer, SK-MEL-5 and UACC-62 from melanoma, UO-31 from renal cancer, PC-3 from prostate cancer and HS 578T and T-47D from breast cancer are the most sensitive cell lines to the tested compounds. No growth inhibition was observed from the selected compounds against COLO205, HCC-2998, MALME-3M, SK-MEL-28, DU-145 and BT-549 cell lines. […] Against UO-31 from renal cancer and PC-3 from prostate cancer, it inhibited the growth of 44% and 58% of the cancer cells, respectively.

HOP-62 = experiment: NCI 60 one dose (10 μM) anticancer assay; assay type: cell-based; conditions: Homo sapiens, 10 µM one dose, Non-small cell lung Cancer, read-out: Growth Inhibition % HOP-62
Experimental: as §1

CCRF-CEM = experiment: NCI 60 one dose (10 μM) anticancer assay; assay type: cell-based; conditions: Homo sapiens, 10 µM one dose, Leukemia, read-out: Growth Inhibition % CCRF-CEM
Experimental: as §1

SW-620 = experiment: NCI 60 one dose (10 μM) anticancer assay; assay type: cell-based; conditions: Homo sapiens, 10 µM one dose, Colon Cancer, read-out: Growth Inhibition % SW-620
Experimental: as §1

HOP-92 = experiment: NCI 60 one dose (10 μM) anticancer assay; assay type: cell-based; conditions: Homo sapiens, 10 µM one dose, Non-small cell lung Cancer, read-out: Growth Inhibition % HOP-92
Experimental: as §1

MOLT-4 = experiment: NCI 60 one dose (10 μM) anticancer assay; assay type: cell-based; conditions: Homo sapiens, 10 µM one dose, Leukemia, read-out: Growth Inhibition % MOLT-4
Experimental: as §1

CAK1-1 = experiment: NCI 60 one dose (10 μM) anticancer assay; assay type: cell-based; conditions: 10 µM one dose; Renal Cancer; read-out: Growth Inhibition % CAK1-1
Experimental: as §1

PRMI-8226 = experiment: NCI 60 one dose (10 μM) anticancer assay; assay type: cell-based; conditions: 10 µM one dose; Leukemia; read-out: Growth Inhibition % PRMI-8226
Experimental: as §1

NCI-H460 = experiment: NCI 60 one dose (10 μM) anticancer assay; assay type: cell-based; conditions: Homo sapiens, 10 µM one dose, Non-small cell lung Cancer, read-out: Growth Inhibition % NCI-H460
Experimental: as §1

OVCAR-8 = experiment: NCI 60 one dose (10 μM) anticancer assay; assay type: cell-based; conditions: Homo sapiens, 10 µM one dose, Ovarian Cancer, read-out: Growth Inhibition % OVCAR-8
Experimental: as §1

NCI-H226 = experiment: NCI 60 one dose (10 μM) anticancer assay; assay type: cell-based; conditions: Homo sapiens, 10 µM one dose, Non-small cell lung Cancer, read-out: Growth Inhibition % NCI-H226
Experimental: as §1

PC-3 = experiment: NCI 60 one dose (10 μM) anticancer assay; assay type: cell-based; conditions: Homo sapiens, 10 µM one dose, Prostate Cancer, read-out: Growth Inhibition % PC-3
Experimental: as §1

SNB-75 = experiment: NCI 60 one dose (10 μM) anticancer assay; assay type: cell-based; conditions: Homo sapiens, 10 µM one dose, CNS Cancer, read-out: Growth Inhibition % SNB-75
Experimental: as §1

UACC-62 = experiment: NCI 60 one dose (10 μM) anticancer assay; assay type: cell-based; conditions: Homo sapiens, 10 µM one dose, Melanoma, read-out: Growth Inhibition % UACC-62
Experimental: as §1

RXF 393 = experiment: NCI 60 one dose (10 μM) anticancer assay; assay type: cell-based; conditions: Homo sapiens, 10 µM one dose, Renal Cancer, read-out: Growth Inhibition % RXF 393
Experimental: as §1

HCT-15 = experiment: NCI 60 one dose (10 μM) anticancer assay; assay type: cell-based; conditions: Homo sapiens, 10 µM one dose, Colon Cancer, read-out: Growth Inhibition % HCT-15
Experimental: as §1

HepG2 cell line = experiment: In vitro cytotoxic activity, Sulfo-Rhodamine-B (SRB) assay; assay type: cell-based, human; conditions: Homo sapiens, HepG2, 48 h, SRB assay, 48 h; mean of three independent experiments; read-out: IC50 (μM) on HepG2 Cell Line
HSF cell line = experiment: In vitro growth inhibitory activity on normal human skin fibroblast, SRB assay; assay type: cell-based; conditions: for IC50: Homo sapiens, HSF, SRB assay, 48 h, normal cell line, mean of three independent experiments
Experimental: The anticancer activity of the synthesized compounds was measured in vitro using the Sulfo-Rhodamine-B (SRB) assay according to Skehan et al.. Briefly, HepG2 or HSF cells (obtained from Nawah Scientific) were inoculated in 96-well microtiter plates (10^4 cells/ well) for 24 h before treatment with the tested compounds to allow attachment of cells to the walls of the plates. Test compounds were dissolved in DMSO immediately before use and diluted to the appropriate volume just before addition to the cell culture. […] Three wells were prepared for each individual dose. Monolayer cells were incubated with the compounds for 48 h at 37 °C and in an atmosphere of 5% CO2. After 48 h, cells were fixed, washed and stained for 30 min with 0.4% (w/v) SRB dissolved in 1% acetic acid. Unbound dye was removed by four washes with 1% acetic acid and attached stain was recovered with Tris-EDTA buffer. Color intensity was measured in an ELISA reader. The relation between surviving fraction and drug concentration was plotted to get the survival curve.

VEGFR-2 = VEGFR-2 (Homo sapiens, UniProt P35968); experiment: Biochemical kinase assay (Kinase-Glo Plus luminescence)
Sequence of VEGFR-2 (P35968 20-1356): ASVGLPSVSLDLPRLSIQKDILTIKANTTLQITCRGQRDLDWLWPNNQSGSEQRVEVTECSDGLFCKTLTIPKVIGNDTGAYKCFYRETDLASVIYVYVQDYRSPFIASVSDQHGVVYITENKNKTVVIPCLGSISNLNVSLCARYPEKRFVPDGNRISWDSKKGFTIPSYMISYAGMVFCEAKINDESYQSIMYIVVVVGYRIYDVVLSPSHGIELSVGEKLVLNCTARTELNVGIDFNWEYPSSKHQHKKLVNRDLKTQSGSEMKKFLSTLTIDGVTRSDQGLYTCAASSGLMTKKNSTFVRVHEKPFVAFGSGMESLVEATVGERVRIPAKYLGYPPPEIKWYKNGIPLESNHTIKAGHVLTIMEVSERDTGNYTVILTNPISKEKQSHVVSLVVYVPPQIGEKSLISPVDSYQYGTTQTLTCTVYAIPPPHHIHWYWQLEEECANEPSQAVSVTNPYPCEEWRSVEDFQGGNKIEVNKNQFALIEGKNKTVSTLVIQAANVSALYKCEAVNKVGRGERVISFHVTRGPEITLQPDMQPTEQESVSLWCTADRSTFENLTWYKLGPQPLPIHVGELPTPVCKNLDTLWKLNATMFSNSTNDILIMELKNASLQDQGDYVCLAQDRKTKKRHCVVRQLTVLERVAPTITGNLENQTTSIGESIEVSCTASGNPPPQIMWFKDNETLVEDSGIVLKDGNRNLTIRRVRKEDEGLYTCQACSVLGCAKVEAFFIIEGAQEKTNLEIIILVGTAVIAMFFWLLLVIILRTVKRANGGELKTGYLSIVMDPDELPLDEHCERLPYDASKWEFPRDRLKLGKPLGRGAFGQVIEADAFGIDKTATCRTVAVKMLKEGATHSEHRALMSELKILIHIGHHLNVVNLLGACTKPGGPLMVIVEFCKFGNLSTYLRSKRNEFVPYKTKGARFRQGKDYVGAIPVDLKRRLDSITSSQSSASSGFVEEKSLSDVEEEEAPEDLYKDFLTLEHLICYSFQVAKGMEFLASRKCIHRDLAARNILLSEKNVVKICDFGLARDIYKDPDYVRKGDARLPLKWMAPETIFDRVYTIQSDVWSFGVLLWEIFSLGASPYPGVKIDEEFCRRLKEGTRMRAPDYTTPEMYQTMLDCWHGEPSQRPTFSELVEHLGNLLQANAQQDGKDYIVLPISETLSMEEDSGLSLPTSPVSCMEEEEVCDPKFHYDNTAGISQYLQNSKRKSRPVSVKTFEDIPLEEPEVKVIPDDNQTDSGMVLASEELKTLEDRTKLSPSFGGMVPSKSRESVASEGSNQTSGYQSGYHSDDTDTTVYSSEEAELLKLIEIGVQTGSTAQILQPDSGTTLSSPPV
Experimental: This assay was carried out using the VEGFR-2 kinase enzyme system or FGFR-1 kinase enzyme system and Kinase-Glo Plus luminescence kinase (Promega) kits according to the manufacturers´ protocols. This assay evaluated the activity of kinase by measuring the amount of ATP remaining in solution after a kinase reaction. The luminescent signal from the assay was related to the quantity of ATP available, which was inversely proportional to the amount of kinase activity. […] Subsequently, serial dilutions were carried out, and 5 µL of the dilution was added to a 50 µL reaction. The enzymatic reactions were performed at 30 °C for 45 minutes. The 50 µL reaction mixture contained 40 mM Tris, pH 7.4, 10 mM MgCl2, 0.1 mg/mL BSA, 1 mM DTT, 0.2 mg/ml Poly (Glu, Tyr) substrate, 10 μM ATP and protein. After the enzymatic reaction, 50 µL of Kinase-Glo Plus Luminescence kinase assay solution was added to each reaction, and the plates were incubated for 15 minutes at room temperature. The luminescence signal was measured using a Tecan–spark multimode microplate reader. The difference between luminescence intensities in the absence of Kinase (Lut) and in the presence of Kinase (Luc) was defined as 100% activity (Lut − Luc). Using a luminescence signal (Lu) in the presence of the compound, % activity was calculated as: % activity = {(Lut − Lu)/(Lut − Luc)}×100%, where Lu = the luminescence intensity in the presence of the compound.

Structure (SMILES) | melting point | inhibition at 10 µM (786-0) | inhibition at 10 µM (HOP-62) | inhibition at 10 µM (CCRF-CEM) | inhibition at 10 µM (SW-620) | inhibition at 10 µM (HOP-92) | inhibition at 10 µM (MOLT-4) | inhibition at 10 µM (CAK1-1) | inhibition at 10 µM (NCI-H460) | inhibition at 10 µM (OVCAR-8) | inhibition at 10 µM (NCI-H226) | inhibition at 10 µM (PC-3) | inhibition at 10 µM (SNB-75) | inhibition at 10 µM (UACC-62) | inhibition at 10 µM (RXF 393) | inhibition at 10 µM (HCT-15) | IC50 (HepG2 cell line) | also measured
C/C(=N\NC(=O)Cn1c(C(C)C)nc2ccccc21)c1ccccc1 [Compound 14a, (E)-2-(2-Isopropyl-1H-benzo[d]imidazol-1-yl)-N′-(1-phenylethylidene)acetohydrazide] | 176 to 178 °C | < 10% | < 10% | 16% | 18% | 18% | < 10% | 12% | < 10% | < 10% | 22% | < 10% | 18% | 13% | 33% | < 10% | 25.9 µM | inhibition at 10 µM (PRMI-8226): < 10%
CC(C)c1nc2ccccc2n1CC(=O)N/N=C/c1cccc(OCc2ccccc2)c1 [Compound 17a, (E)-N′-(3-(Benzyloxy)benzylidene)-2-(2-isopropyl-1H-benzo[d]imidazol-1-yl)acetohydrazide] | – | 24% | < 10% | 41% | < 10% | – | 50% | < 10% | < 10% | < 10% | 29% | 58% | 15% | 41% | < 10% | < 10% | 1.98 µM | IC50 (HSF cell line): 19.9 µM; selectivity to the HepG2 cell line over the normal HSF cell line (HSF cell line; from IC50 HSF vs IC50 HepG2): about ten-fold higher selectivity; IC50 (VEGFR-2): 0.11 ± 0.003 µM
Cc1ccc(-c2nc3ccccc3n2CC(=O)N/N=C/c2cccc(OCc3ccccc3)c2)o1 [Compound 17b, (E)-N′-(3-(Benzyloxy)benzylidene)-2-(2-(5-methylfuran-2-yl)-1H-benzo[d]imidazol-1-yl)acetohydrazide] | 180 to 182 °C | 26% | 15% | 28% | 13% | 32% | 58% | 33% | 27% | 26% | 25% | 46% | 39% | 29% | 40% | 35% | 10 µM | inhibition at 10 µM (PRMI-8226): 50%; IC50 (HSF cell line): 4.8 µM; IC50 (VEGFR-2): 0.14 ± 0.004 µM
CC(C)c1nc2ccccc2n1CC(=O)N/N=C/c1ccc(OCc2ccccc2)cc1 [Compound 17c, (E)-N′-(4-(Benzyloxy)benzylidene)-2-(2-isopropyl-1H-benzo[d]imidazol-1-yl)acetohydrazide] | 209 to 211 °C | < 10% | < 10% | < 10% | < 10% | < 10% | 25% | 15% | < 10% | < 10% | < 10% | 17% | < 10% | 26% | < 10% | < 10% | 20.2 µM | –
Cc1ccc(-c2nc3ccccc3n2CC(=O)N/N=C/c2ccc(OCc3ccccc3)cc2)o1 [Compound 17d, (E)-N′-(4-(Benzyloxy)benzylidene)-2-(2-(5-methylfuran-2-yl)-1H-benzo[d]imidazol-1-yl)acetohydrazide] | 201 to 203 °C | < 10% | 17% | < 10% | < 10% | – | 40% | 21% | < 10% | 20% | < 10% | 29% | 20% | < 10% | < 10% | 25% | 15.6 µM | –
COc1cc(/C=N/NC(=O)Cn2c(C(C)C)nc3ccccc32)ccc1OCc1ccccc1 [Compound 17e, (E)-N′-(4-(Benzyloxy)-3-methoxybenzylidene)-2-(2-isopropyl-1H-benzo[d]imidazol-1-yl)acetohydrazide] | 180 to 182 °C | < 10% | < 10% | < 10% | < 10% | < 10% | 22% | < 10% | < 10% | < 10% | < 10% | 20% | < 10% | 22% | < 10% | < 10% | 24.1 µM | –
COc1cc(/C=N/NC(=O)Cn2c(-c3ccc(C)o3)nc3ccccc32)ccc1OCc1ccccc1 [Compound 17f, (E)-N′-(4-(Benzyloxy)-3-methoxybenzylidene)-2-(2-(5-methylfuran-2-yl)-1H-benzo[d]imidazol-1-yl)acetohydrazide] | 139 to 141 °C | < 10% | < 10% | 19% | < 10% | – | 50% | 17% | < 10% | 19% | 16% | 37% | 17% | 22% | < 10% | 26% | 42.5 µM | –
